Results on 31 compounds are retold here after US9663496B2, “AMPK-activating heterocyclic compounds and methods for using the same” (Rigel Pharmaceuticals, Inc., priority 2010, dated 2017).

In the experiment the target is AMPK. As to the kind of experiment: AMPK activation, enzyme-linked immunosorbent assay. Type of experiment: biochemical. Conditions: EC50 for AMPK activation, ELISA. The procedure: Compounds were assayed for their ability to activate AMPK using an enzyme-linked immunosorbent assay. Reagents and procedures for measuring AMPK activation are well known and kits for AMPK activation assays are commercially available.
In the case of `CS(=O)(=O)c1ccc(OC2CCN(C(=O)c3cnc(C(=O)NC4CCN(Cc5ccc(C#N)cc5)CC4)cn3)CC2)cc1` [Compound 218, N-(1-(4-cyanobenzyl)piperidin-4-yl)-5-(4-(4-(methylsulfonyl)phenoxy)piperidine-1-carbonyl)pyrazine-2-carboxamide], the EC50 was less than 0.5 µM.

With `O=C(Nc1ccc(Oc2ccc(F)cc2)nc1)c1ccc(C(=O)N2CCC(Oc3ccc(F)cc3)CC2)cn1` [Compound 273, 5-(4-(4-fluorophenoxy)piperidine-1-carbonyl)-N-(6-(4-fluorophenoxy)pyridin-3-yl)picolinamide], the concentration giving a half-maximal response (EC50) was less than 0.5 µM.

Compound `N#Cc1ccc(CN2CCC(NC(=O)c3ccc(C(=O)N4CCC(Oc5cccc(NC(=O)C6CC6)c5)CC4)nc3)CC2)cc1` [Compound 431, N-(1-(4-cyanobenzyl)piperidin-4-yl)-6-(4-(3-(cyclopropanecarboxamido)phenoxy)piperidine-1-carbonyl)nicotinamide] returned a concentration giving a half-maximal response (EC50) of 0.5 to 1 µM.

On to `N#Cc1ccc(CN2CCC(NC(=O)c3ccc(C(=O)N4CCN(C(=O)c5ccc(F)cc5)CC4)cn3)CC2)cc1` [Compound 76, N-(1-(4-cyanobenzyl)piperidin-4-yl)-5-(4-(4-fluorobenzoyl)piperazine-1-carbonyl)picolinamide], for which the EC50 is less than 0.5 µM.

`COc1ccc(C(=O)C2CCN(C(=O)c3ccc(C(=O)N[C@@H]4CCN(Cc5cc(C)on5)C[C@@H]4F)cn3)CC2)cc1` [Compound 426, N-((3S,4R)-3-fluoro-1-((5-methylisoxazol-3-yl)methyl)piperidin-4-yl)-6-(4-(4-methoxybenzoyl)piperidine-1-carbonyl)nicotinamide] gave an EC50 of less than 0.5 µM.

`O=C(NC1CCN(Cc2ccc(F)cc2)CC1)c1ccc(C(=O)N2CCC(Oc3cccc(NC(=O)C4CC4)c3)CC2)nc1` [Compound 432, 6-(4-(3-(cyclopropanecarboxamido)phenoxy)piperidine-1-carbonyl)-N-(1-(4-fluorobenzyl)piperidin-4-yl)nicotinamide] registered an EC50 of 0.5 to 1 µM.

`Cc1nc(Oc2ccc(C#N)cc2)ccc1NC(=O)c1ccc(C(=O)N2CCC(C(=O)c3ccc(F)cc3F)CC2)nc1` [Compound 479, N-(6-(4-cyanophenoxy)-2-methylpyridin-3-yl)-6-(4-(2,4-difluorobenzoyl)piperidine-1-carbonyl)nicotinamide] showed an EC50 of less than 0.5 µM.

In turn, `CS(=O)(=O)c1ccc(C(=O)C2CCN(C(=O)c3ccc(C(=O)Nc4ccc(Oc5ccc(F)cc5)nc4)cn3)CC2)cc1` [Compound 224, N-(6-(4-fluorophenoxy)pyridin-3-yl)-6-(4-(4-(methylsulfonyl)benzoyl)piperidine-1-carbonyl)nicotinamide] registered an EC50 of less than 0.5 µM.

Turning to `N#Cc1ccc(CN2CCC(NC(=O)c3ccc(NC4CCN(c5ccc(C#N)cc5)CC4)cn3)CC2)cc1` [Compound 267, N-(1-(4-cyanobenzyl)piperidin-4-yl)-5-(1-(4-cyanophenyl)piperidin-4-ylamino)picolinamide], the half-maximal effective concentration (EC50) was less than 0.5 µM.

With `N#Cc1ccc(CN2CCC(NC(=O)c3ccc(C(=O)N4CCC(Oc5ccc(S(=O)(=O)C(F)(F)F)cc5)CC4)nc3)CC2)cc1` [Compound 450, N-(1-(4-cyanobenzyl)piperidin-4-yl)-6-(4-(4-(trifluoromethylsulfonyl)phenoxy)piperidine-1-carbonyl)nicotinamide], the EC50 is less than 0.5 µM.

`N#Cc1ccc(Oc2ccc(NC(=O)c3ccc(C(=O)N4CCC(C(=O)c5ccc(F)cc5F)CC4)nc3)cn2)cc1` [Compound 463, N-(6-(4-cyanophenoxy)pyridin-3-yl)-6-(4-(2,4-difluorobenzoyl)piperidine-1-carbonyl)nicotinamide] registered an EC50 of less than 0.5 µM.

Regarding `COc1ccc(C(=O)C2CCN(C(=O)c3ccc(C(=O)NC4CCC(Oc5ccc(C#N)cc5)CC4)cn3)CC2)cc1` (stereo not shown) [Compound 315, N-((1s,4s)-4-(4-cyanophenoxy)cyclohexyl)-6-(4-(4-methoxybenzoyl)piperidine-1-carbonyl)nicotinamide], the EC50 is less than 0.5 µM.

The compound `CS(=O)(=O)c1ccc(OC2CCN(C(=O)c3ccc(C(=O)NC4CCN(Cc5ccc(N6CCCC6)cc5)CC4)nc3)CC2)cc1` [Compound 208, 5-(4-(4-(methylsulfonyl)phenoxy)piperidine-1-carbonyl)-N-(1-(4-(pyrrolidin-1-yl)benzyl)piperidin-4-yl)picolinamide] showed an EC50 of less than 0.5 µM.

`O=C(NC1CCN(Cc2ccccc2)CC1)c1ccc(C(=O)NC2CCN(Cc3ccccc3)CC2)nc1` [Compound 264, N2,N5-bis(1-benzylpiperidin-4-yl)pyridine-2,5-dicarboxamide] gave an EC50 of 5 to 10 µM.

Regarding `N#Cc1ccc(O[C@H]2CC[C@@H](NC(=O)c3ccc(C(=O)N4CCC(Oc5cccc(NC(=O)C6CC6)c5)CC4)nc3)CC2)cc1` [Compound 434, N-((cis)-4-(4-cyanophenoxy)cyclohexyl)-6-(4-(3-(cyclopropanecarboxamido)phenoxy)piperidine-1-carbonyl)nicotinamide], the EC50 is less than 0.5 µM.

`O=C(NCc1ccccc1)c1ccc(C(=O)N2CCN(Cc3ccccc3)CC2)cn1` [Compound 116, N-benzyl-5-(4-benzylpiperazine-1-carbonyl)picolinamide] yielded an EC50 of 1 to 5 µM.

On to `CC(C)Oc1ccc(CN2CCC(NC(=O)c3ccc(C(=O)N4CCC(C(=O)c5ccc(N6CCCC6)cc5)CC4)nc3)CC2)cc1` [Compound 446, N-(1-(4-isopropoxybenzyl)piperidin-4-yl)-6-(4-(4-(pyrrolidin-1-yl)benzoyl)piperidine-1-carbonyl)nicotinamide], for which the concentration for a half-maximal effect (EC50) was less than 0.5 µM.

In turn, `CC(C)(C)OC(=O)NCC#Cc1cc(C(=O)N2CCN(Cc3ccc(F)cc3)CC2)cnc1C(=O)NC1CCN(Cc2ccc(C#N)cc2)CC1` [Compound 164, tert-butyl 3-(2-(1-(4-cyanobenzyl)piperidin-4-ylcarbamoyl)-5-(4-(4-fluorobenzyl)piperazine-1-carbonyl)pyridin-3-yl)prop-2-ynylcarbamate] returned an EC50 of 0.5 to 1 µM.

In turn, `N#Cc1ccc(CN2CCC(NC(=O)c3ccc(C(=O)N4CCC(c5ccc(Cl)cc5)CC4)cn3)CC2)cc1` [Compound 134, 5-(4-(4-chlorophenyl)piperidine-1-carbonyl)-N-(1-(4-cyanobenzyl)piperidin-4-yl)picolinamide] gave an EC50 of less than 0.5 µM.

For `N#Cc1ccc(CN2CCC(NC(=O)c3ccc(C(=O)N4CCC(C(=O)c5cccs5)CC4)cn3)CC2)cc1` [Compound 419, N-(1-(4-cyanobenzyl)piperidin-4-yl)-5-(4-(thiophene-2-carbonyl)piperidine-1-carbonyl)picolinamide], the EC50 is less than 0.5 µM.

For `COc1ccc(C(=O)C2CCN(C(=O)c3ccc(C(=O)Nc4ccc(Oc5ccc(S(C)(=O)=O)cc5)nc4)cn3)CC2)cc1` [Compound 465, 6-(4-(4-methoxybenzoyl)piperidine-1-carbonyl)-N-(6-(4-(methylsulfonyl)phenoxy)pyridin-3-yl)nicotinamide], the EC50 was less than 0.5 µM.

`N#Cc1ccc(CN2CCC(NC(=O)c3ccc(N4CCC(Oc5ccc(C(F)(F)F)cc5)CC4)nn3)CC2)cc1` [Compound 361, N-(1-(4-cyanobenzyl)piperidin-4-yl)-6-(4-(4-(trifluoromethyl)phenoxy)piperidin-1-yl)pyridazine-3-carboxamide] had an EC50 of less than 0.5 µM.

`O=C(c1ccc(C(=O)N2CCN(Cc3ccccc3)CC2)nc1)N1CCN(Cc2ccccc2)CC1` [Compound 73, pyridine-2,5-diylbis((4-benzylpiperazin-1-yl)methanone)] had an EC50 of 5 to 10 µM.

For the compound `CS(=O)(=O)c1ccc(OC2CCN(C(=O)c3ccc(C(=O)NC4CCN(Cc5ccc(F)cc5)CC4)cn3)CC2)cc1` [Compound 396, N-(1-(4-fluorobenzyl)piperidin-4-yl)-6-(4-(4-(methylsulfonyl)phenoxy)piperidine-1-carbonyl)nicotinamide], the EC50 is 1 to 5 µM.

As to `N#Cc1ccc(CN2CCC(NC(=O)c3ccc(N4CCC(C(=O)c5ccc(Cl)cc5)CC4)cn3)CC2)cc1` [Compound 266, 5-(4-(4-chlorobenzoyl)piperidin-1-yl)-N-(1-(4-cyanobenzyl)piperidin-4-yl)picolinamide], the EC50 was less than 0.5 µM.

The compound `O=C(c1ccc(C(=O)N2CCN(CCc3ccccc3)CC2)nc1)N1CCN(Cc2ccc(F)cc2)CC1` [Compound 88, (4-(4-fluorobenzyl)piperazin-1-yl)(6-(4-phenethylpiperazine-1-carbonyl)pyridin-3-yl)methanone] displayed an EC50 of 1 to 5 µM.

Compound `CS(=O)(=O)c1ccc(OC2CCN(C(=O)c3ccc(C(=O)N[C@@H]4CCN(Cc5ccc(OC(F)(F)F)cc5)C[C@H]4F)nc3)CC2)cc1` (relative stereo) [Compound 255, N-((trans)-3-fluoro-1-(4-(trifluoromethoxy)benzyl)piperidin-4-yl)-5-(4-(4-(methylsulfonyl)phenoxy)piperidine-1-carbonyl)picolinamide] came in with an EC50 of less than 0.5 µM.

On to `CS(=O)(=O)c1ccc(C(=O)C2CCN(C(=O)c3ccc(C(=O)NC4CCN(Cc5ccc(C#N)cc5)CC4)cn3)CC2)cc1` [Compound 221, N-(1-(4-cyanobenzyl)piperidin-4-yl)-6-(4-(4-(methylsulfonyl)benzoyl)piperidine-1-carbonyl)nicotinamide], for which the EC50 is 1 to 5 µM.

Turning to `N#Cc1ccc(CN2CCC(NC(=O)c3ccc(C(=O)N4CCC(C(=O)c5ccc(Cl)cc5)CC4)cn3)CC2)cc1` [Compound 154, 5-(4-(4-chlorobenzoyl)piperidine-1-carbonyl)-N-(1-(4-cyanobenzyl)piperidin-4-yl)picolinamide], the EC50 is less than 0.5 µM.

Compound `COc1ccc(C(=O)C2CCN(C(=O)c3ccc(C(=O)N(C)C4CCN(Cc5ccc(OC(F)(F)F)cc5)CC4)cn3)CC2)cc1` [Compound 483, 6-(4-(4-methoxybenzoyl)piperidine-1-carbonyl)-N-methyl-N-(1-(4-(trifluoromethoxy)benzyl)piperidin-4-yl)nicotinamide] came in with an EC50 of less than 0.5 µM.

The compound `COc1ccc(CN2CCC(NC(=O)c3ccc(C(=O)N4CCC(Oc5ccc(S(F)(F)(F)(F)F)cc5)CC4)nc3)CC2)cc1` [Compound 495, N-(1-(4-methoxybenzyl)piperidin-4-yl)-6-(4-(4-(pentafluorosulfanyl)phenoxy)piperidine-1-carbonyl)nicotinamide] gave an EC50 of less than 0.5 µM.
